For 15 compounds, pest or weed control results are on record in patent publication US8865623B2, “Herbicidally active cyclic diones and derivatives thereof, processes for their preparation, compositions, and method of controlling weeds” (Syngenta Limited, priority 2009, dated 2014).

Common to all, as to format: in vivo
Assay [1] relates to Alopecurus myosuroides (ALOMY). Kind of assay: Pre-emergence herbicidal activity, glasshouse pot test. As to conditions: Alopecurus myosuroides, 312 h, Rate 250 g/ha, evaluated after 13 days, read-out: Pre-emergence activity ALOMY (100=total damage to plant; 0=no damage to plant). In outline: (§1)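 Spray solution: technical a.i. formulated in acetone/water (50:50) with 0.5% Tween 20, diluted in water. Applied to pots 1 d (pre) or 8 d (post) after sowing; glasshouse 24/16° C day/night, 14 h light, 65% humidity. Rated at 13 d, 0–100 damage.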

Assay [2] has as its system Avena fatua (AVEFA). Described as above. As to conditions: Avena fatua, 312 h, Rate 250 g/ha, evaluated after 13 days, read-out: Pre-emergence activity AVEFA (100=total damage to plant; 0=no damage to plant). Summed up: as §1
Assay [3] relates to Echinochloa crus-galli (ECHCG). The assay is described as above. As to conditions: Echinochloa crus-galli, 312 h, Rate 250 g/ha, evaluated after 13 days, read-out: Pre-emergence activity ECHCG (100=total damage to plant; 0=no damage to plant). In outline:
as §1

Assay [4] concerns Lolium perenne (LOLPE). Described as above. As to conditions: Lolium perenne, 312 h, Rate 250 g/ha, evaluated after 13 days, read-out: Pre-emergence activity LOLPE (100=total damage to plant; 0=no damage to plant). Summed up: as §1
For assay [5], the system named is Alopecurus myosuroides (ALOMY). Kind of assay: Post-emergence herbicidal activity, glasshouse pot test. The following applies: Alopecurus myosuroides, 312 h, rate 250 g/ha, evaluated after 13 days, read-out: Post-emergence activity ALOMY (100=total damage to plant; 0=no damage to plant). Summed up: as §1
Assay [6] relates to Avena fatua (AVEFA). The description is as above. The following applies: Avena fatua, 312 h, rate 250 g/ha, evaluated after 13 days, read-out: Post-emergence activity AVEFA (100=total damage to plant; 0=no damage to plant). Summed up: as §1
Assay [7] relates to Echinochloa crus-galli (ECHCG). The assay is described as above. The following applies: Echinochloa crus-galli, 312 h, rate 250 g/ha, evaluated after 13 days, read-out: Post-emergence activity ECHCG (100=total damage to plant; 0=no damage to plant). Summed up: as §1
Assay [8] relates to Lolium perenne (LOLPE). The description is as above. As to conditions: Lolium perenne, 312 h, rate 250 g/ha, evaluated after 13 days, read-out: Post-emergence activity LOLPE (100=total damage to plant; 0=no damage to plant). Summed up: as §1

For the compound `CCc1ccc(Oc2ncc(Cl)cc2F)cc1C1=C(O)C(C)(C)OC(C)(C)C1=O` [Example A-54], the pest or weed control at 250 g/ha in assay [1] (pre-emergence spray) came to 100%; in the assay with Avena fatua (AVEFA) [2] (pre-emergence spray), 90%; in assay [3] (pre-emergence spray), 100%; with Lolium perenne (LOLPE) [4] (pre-emergence spray) it was 100%; in assay [5] (glasshouse), 100%; in the assay on Avena fatua (AVEFA) [6] (glasshouse), 100%. The pest or weed control at 250 g/ha (in assay [7] (glasshouse); with Lolium perenne (LOLPE) [8] (glasshouse)) was 100% throughout.

`CCc1ccc(Oc2nc(F)c(F)c(Cl)c2F)cc1C1=C(O)C(C)(C)OC(C)(C)C1=O` [Example A-151]: the pest or weed control at 250 g/ha stood at 30% in assay [1] (pre-emergence spray); 20% with Avena fatua (AVEFA) [2] (pre-emergence spray); 70% in assay [3] (pre-emergence spray); 50% in the assay on Lolium perenne (LOLPE) [4] (pre-emergence spray); 20% in assay [5] (glasshouse); 20% with Avena fatua (AVEFA) [6] (glasshouse). Besides, the pest or weed control at 250 g/ha was found to be 70% in assay [7] (glasshouse) and 30% in the assay with Lolium perenne (LOLPE) [8] (glasshouse).

As for `CCc1ccc(Oc2ncc(C)cn2)cc1C1=C(O)C(C)(C)OC(C)(C)C1=O` [Example A-123], the pest or weed control at 250 g/ha came out at 30% in assay [1] (pre-emergence spray); 0% in the assay on Avena fatua (AVEFA) [2] (pre-emergence spray); 30% in assay [3] (pre-emergence spray); 20% in the assay on Lolium perenne (LOLPE) [4] (pre-emergence spray); 20% in assay [5] (glasshouse); 10% in the assay with Avena fatua (AVEFA) [6] (glasshouse). The values for the pest or weed control at 250 g/ha (in assay [7] (glasshouse); in the assay with Lolium perenne (LOLPE) [8] (glasshouse)) were 50% and 30%, respectively.

Regarding `CCc1ccc(Oc2ccc(Br)cc2F)cc1C1=C(O)CCC(C)(C)C1=O` [Example A-114], the pest or weed control at 250 g/ha was found to be 20% in assay [1] (pre-emergence spray); 50% with Avena fatua (AVEFA) [2] (pre-emergence spray); 60% in assay [3] (pre-emergence spray); 90% in the assay with Lolium perenne (LOLPE) [4] (pre-emergence spray); 10% in assay [5] (glasshouse); 10% with Avena fatua (AVEFA) [6] (glasshouse). In addition, the pest or weed control at 250 g/ha in assay [7] (glasshouse) was found to be 80%; with Lolium perenne (LOLPE) [8] (glasshouse), 50%.

For the compound `CC1(C)OC(C)(C)C(O)=C(c2cc(Oc3ccc(Br)cc3F)ccc2C2CC2)C1=O` [Example A-350], the pest or weed control at 250 g/ha in assay [1] (pre-emergence) came to 90%; with Avena fatua (AVEFA) [2] (pre-emergence), 50%; in assay [3] (pre-emergence), 100%; in the assay on Lolium perenne (LOLPE) [4] (pre-emergence) it was 100%; in assay [5], 90%; in the assay on Avena fatua (AVEFA) [6], 90%. Moreover, the pest or weed control at 250 g/ha in assay [7] amounted to 100%; in the assay with Lolium perenne (LOLPE) [8], 90%.

For `CCc1ccc(Oc2ccc(Cl)cc2F)cc1C1=C(O)[C@@H]2CC[C@](C)(C1=O)C2(C)C` (single isomer, unassigned) [Example A-95], the pest or weed control at 250 g/ha in assay [1] (pre-emergence spray) worked out at 70%; in the assay with Avena fatua (AVEFA) [2] (pre-emergence spray), 80%; in assay [3] (pre-emergence spray), 90%; in the assay with Lolium perenne (LOLPE) [4] (pre-emergence spray), 90%; in assay [5] (glasshouse), 60%; with Avena fatua (AVEFA) [6] (glasshouse), 80%. In addition, the pest or weed control at 250 g/ha worked out at 80% in assay [7] (glasshouse) and 50% with Lolium perenne (LOLPE) [8] (glasshouse).

As to `CCc1ccc(Oc2ccccc2F)cc1C1=C(O)C(C)(C)OC(C)(C)C1=O` [Example A-13], the pest or weed control at 250 g/ha (in assay [1] (pre-emergence spray); in the assay with Avena fatua (AVEFA) [2] (pre-emergence spray); in assay [3] (pre-emergence spray); in the assay on Lolium perenne (LOLPE) [4] (pre-emergence spray); in assay [5] (glasshouse); in the assay on Avena fatua (AVEFA) [6] (glasshouse)) was 0% each time. In addition, the pest or weed control at 250 g/ha in assay [7] (glasshouse) came out at 70%; in the assay on Lolium perenne (LOLPE) [8] (glasshouse), 0%.

Regarding `CCc1ccc(Oc2nc3ccc(Cl)cc3s2)cc1C1=C(O)[C@@H]2CC[C@](C)(C1=O)C2(C)C` [Example A-320], the pest or weed control at 250 g/ha in assay [1] (pre-emergence spray) was 80%; with Avena fatua (AVEFA) [2] (pre-emergence spray) it was 80%; in assay [3] (pre-emergence spray), 100%; with Lolium perenne (LOLPE) [4] (pre-emergence spray), 100%; in assay [5] (glasshouse), 100%; with Avena fatua (AVEFA) [6] (glasshouse), 100%. For the same compound, the pest or weed control at 250 g/ha in assay [7] (glasshouse) stood at 100%; in the assay on Lolium perenne (LOLPE) [8] (glasshouse), 90%.

Turning to `CCc1ccc(Oc2ccc3ccccc3c2)cc1C1=C(O)C(C)(C)OC(C)(C)C1=O` [Example A-56], the pest or weed control at 250 g/ha in assay [1] (pre-emergence spray) was 80%; in the assay with Avena fatua (AVEFA) [2] (pre-emergence spray), 30%; in assay [3] (pre-emergence spray) it was 80%; in the assay on Lolium perenne (LOLPE) [4] (pre-emergence spray) it was 100%; in assay [5] (glasshouse) it was 100%; in the assay with Avena fatua (AVEFA) [6] (glasshouse) it was 0%. Moreover, the pest or weed control at 250 g/ha (in assay [7] (glasshouse); in the assay on Lolium perenne (LOLPE) [8] (glasshouse)) was 100% each time.

Take `CCc1ccc(Oc2ccc(C(F)(F)F)cc2)cc1C1=C(O)C(C)(C)OC(C)(C)C1=O` [Example A-97]: the pest or weed control at 250 g/ha in assay [1] (pre-emergence spray) was 80%; in the assay with Avena fatua (AVEFA) [2] (pre-emergence spray) it was 90%; in assay [3] (pre-emergence spray), 100%; in the assay with Lolium perenne (LOLPE) [4] (pre-emergence spray), 100%; in assay [5] (glasshouse) it was 100%; in the assay with Avena fatua (AVEFA) [6] (glasshouse), 90%. Besides, the values for the pest or weed control at 250 g/ha (in assay [7] (glasshouse); with Lolium perenne (LOLPE) [8] (glasshouse)) were 100% and 90%, respectively.

In the case of `CCc1ccc(Oc2ccnc(Cl)c2)cc1C1=C(O)C(C)(C)OC(C)(C)C1=O` [Example A-72], the pest or weed control at 250 g/ha amounted to 60% in assay [1] (pre-emergence spray); 30% with Avena fatua (AVEFA) [2] (pre-emergence spray); 90% in assay [3] (pre-emergence spray); 70% in the assay on Lolium perenne (LOLPE) [4] (pre-emergence spray); 60% in assay [5] (glasshouse); 50% in the assay on Avena fatua (AVEFA) [6] (glasshouse). Also, the pest or weed control at 250 g/ha is 90% in assay [7] (glasshouse) and 40% in the assay with Lolium perenne (LOLPE) [8] (glasshouse).

As to `CCc1ccc(Oc2nc3ccc([N+](=O)[O-])cc3s2)cc1C1=C(O)[C@@H]2CC[C@](C)(C1=O)C2(C)C` [Example A-325], the pest or weed control at 250 g/ha amounted to 60% in assay [1] (pre-emergence spray); 20% with Avena fatua (AVEFA) [2] (pre-emergence spray); 100% in assay [3] (pre-emergence spray); 90% with Lolium perenne (LOLPE) [4] (pre-emergence spray); 50% in assay [5] (glasshouse); 30% in the assay on Avena fatua (AVEFA) [6] (glasshouse). The pest or weed control at 250 g/ha in assay [7] (glasshouse) came to 100%; in the assay with Lolium perenne (LOLPE) [8] (glasshouse) it was 40%.

For the compound `CCc1ccc(Oc2ccc3cc(Cl)ccc3n2)cc1C1=C(O)[C@@H]2CC[C@](C)(C1=O)C2(C)C` [Example A-235], the pest or weed control at 250 g/ha worked out at 50% in assay [1] (pre-emergence spray); 30% in the assay with Avena fatua (AVEFA) [2] (pre-emergence spray); 100% in assay [3] (pre-emergence spray); 70% with Lolium perenne (LOLPE) [4] (pre-emergence spray); 90% in assay [5] (glasshouse); 100% in the assay with Avena fatua (AVEFA) [6] (glasshouse). For the same compound, the pest or weed control at 250 g/ha (in assay [7] (glasshouse); in the assay on Lolium perenne (LOLPE) [8] (glasshouse)) was 100% in each case.

Consider `CCc1ccc(Oc2nc3c(Cl)c(OC)ccc3s2)cc1C1=C(O)C(C)(C)OC(C)(C)C1=O` [Example A-216], for which the pest or weed control at 250 g/ha turned out to be 30% in assay [1] (pre-emergence spray); 0% in the assay on Avena fatua (AVEFA) [2] (pre-emergence spray); 70% in assay [3] (pre-emergence spray); 10% in the assay with Lolium perenne (LOLPE) [4] (pre-emergence spray); 60% in assay [5] (glasshouse); 70% with Avena fatua (AVEFA) [6] (glasshouse). In addition, the pest or weed control at 250 g/ha is 80% in assay [7] (glasshouse) and 70% in the assay on Lolium perenne (LOLPE) [8] (glasshouse).

With `CCc1ccc(Oc2ccc(Cl)cc2F)cc1C1=C(O)CC2(CCOCC2)CC1=O` [Example A-65], the pest or weed control at 250 g/ha in assay [1] (pre-emergence spray) worked out at 70%; in the assay on Avena fatua (AVEFA) [2] (pre-emergence spray) it was 90%; in assay [3] (pre-emergence spray), 100%; in the assay with Lolium perenne (LOLPE) [4] (pre-emergence spray), 80%; in assay [5] (glasshouse) it was 90%; in the assay on Avena fatua (AVEFA) [6] (glasshouse) it was 90%. The pest or weed control at 250 g/ha came to 100% in assay [7] (glasshouse) and 80% in the assay with Lolium perenne (LOLPE) [8] (glasshouse).
